From patent US11052092B2, “N-{[2-(piperidin-1-yl)phenyl](phenyl)methyl}-2-(3-oxo-3,4-dihydro-2H-1,4-benzoxazin-7-yl)acetamide derivatives and related compounds as ROR-gamma modulators for treating autoimmune diseases” (Genfit, priority 2017, dated 2021) come the findings set out here.

Where a name gives a salt, the structure may show the parent alone.

The target in one series is T1, human RORγt (Homo sapiens, UniProt P51449).
T1 construct: the full-length cDNA of human RORγt; expressed in transfected cells; host or cells: COS-7 (monkey kidney)
T1 sequence (P51449 1-497 isoform P51449-2): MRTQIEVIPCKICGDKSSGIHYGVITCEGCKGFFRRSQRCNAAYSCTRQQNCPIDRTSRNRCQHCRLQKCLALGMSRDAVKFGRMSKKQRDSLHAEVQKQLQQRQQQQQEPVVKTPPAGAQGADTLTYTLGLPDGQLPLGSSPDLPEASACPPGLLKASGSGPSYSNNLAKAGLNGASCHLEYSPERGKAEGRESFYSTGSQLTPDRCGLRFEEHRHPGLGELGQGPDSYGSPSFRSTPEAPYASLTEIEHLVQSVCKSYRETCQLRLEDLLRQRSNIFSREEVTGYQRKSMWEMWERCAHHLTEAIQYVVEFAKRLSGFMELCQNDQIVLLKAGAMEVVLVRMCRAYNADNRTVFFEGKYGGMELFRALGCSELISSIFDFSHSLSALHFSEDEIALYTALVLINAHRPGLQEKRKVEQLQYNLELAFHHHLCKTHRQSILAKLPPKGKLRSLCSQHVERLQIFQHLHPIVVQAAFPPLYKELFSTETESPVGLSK
As to the kind of experiment: RORE Luciferase/RORγt transactivation assay. It counts as cell-based. The note with it: COS-7 cells transfected with human IL-17 promoter luciferase reporter and RORγt plasmid; 20 h with compound; read-out: IC50, RORγt activity inhibition. How it is done: It is well known that RORγ binds to a conserved non-coding sequence (CNS) enhancer element in the IL-17 promoter.
Culture medium was changed every 2 days.
The 4.3 Kb human IL-17 promoter containing the RORγ-specific CNS enhancer element was PCR amplified from human genomic DNA and cloned into a pGL3-TKLuc2Cp reporter plasmid.
The luciferase reporter plasmid and the RORγt overexpression plasmid were transfected into COS-7 cell line using 4 μLJetPEI™/μg of DNA. Briefly, 150 ng of DNA (ration ½ between RORE-Tk Luc2Cp and cDNA RORγt or the empty vector for the negative control) was served to transfect adherent COS-7 cells in a […] culture flask, in complete medium (see cos-7 cell line culture).
Cells were then detached (using trypsin) and washed by centrifugation at 300 g for 10 minutes. Cell pellet was resuspended in serum free/phenol red free DMEM and seeded in 384 well plates at a density of 10000 cells/well and then incubated for 4 h at 37° C.
Compounds were dissolved in 100% DMSO to obtain 10 mM stock solutions. For each compound, test concentrations were diluted in serum free/phenol red free DMEM using the Genesis Freedom 200™ (TECAN) and added to the cells to obtain a 0.3% DMSO final concentration (in a final volume of 40 μL per well).
The luciferase activity was then measured with 40 μL/well steady-Glo Luciferase assay system (Promega, Madison, Wis.) and after incubation at room temperature for 30 minutes. The luminescence was estimated using the Ultra384 reader (TECAN). Data were collected and analyzed using GraphPad Prism software (GraphPad Software V5.02, San Diego Calif. USA). IC50 in μM and Emax in % were reported for each compound.
In general terms: A reporter such as luciferase makes a cellular process visible.
Take `Cc1ccc(C(NC(=O)C2(c3ccc4c(c3)OCO4)CC2)c2ccc(C)o2)c(N2CCCCC2)c1` (centres unmarked) [Cpd. 164, 1-(2H-1,3-benzodioxol-5-yl)-N-{[4-methyl-2-(piperidin-1-yl)phenyl](5-methylfuran-2-yl)methyl}cyclopropane-1-carboxamide]: the IC50 (as a rule, the point on the concentration scale where inhibition reaches its midpoint) was in the range of 100 to 1000 nM.

With `Cc1ccc(C(NC(=O)C2(c3ccc4c(c3)CCC4=NO)CC2)c2ccc(C)o2)c(C)c1` (centres unmarked) [Cpd. 165, N-[(2,4-dimethylphenyl)(5-methylfuran-2-yl)methyl]-1-[1-(hydroxyimino)-2,3-dihydro-1H-inden-5-yl]cyclopropane-1-carboxamide], the IC50 was 10 to 100 nM. In the case of `Cc1ccc(C(NC(=O)Cc2ccc3c(c2)CS(=O)(=O)N3CC2CCOCC2)c2ccc(C)o2)c(C)c1` (centres unmarked) [Cpd. 166, N-[(2,4-dimethylphenyl)(5-methylfuran-2-yl)methyl]-2-[1-(oxan-4-ylmethyl)-2,2-dioxo-1,3-dihydro-2,1-benzothiazol-5-yl]acetamide], the IC50 was in the range of 10 to 100 nM. Still for that read-out and setting: in the case of `Cc1ccc(C(NC(=O)Cc2ccc3c(c2)CS(=O)(=O)N3CC2CCOCC2)c2ccc(C)o2)c(N2CCCCC2)c1` (centres unmarked) [Cpd. 167, N-{[4-methyl-2-(piperidin-1-yl)phenyl](5-methylfuran-2-yl)methyl}-2-[1-(oxan-4-ylmethyl)-2,2-dioxo-1,3-dihydro-2,1-benzothiazol-5-yl]acetamide] it was 10 to 100 nM; in that of `Cc1ccc(C(NC(=O)C2(c3ccc4c(c3)OC(C)(C)OC4)CC2)c2ccc(C)o2)c(C)c1` (centres unmarked) [Cpd. 168, 1-(2,2-dimethyl-2,4-dihydro-1,3-benzodioxin-7-yl)-N-[(2,4-dimethylphenyl)(5-methylfuran-2-yl)methyl]cyclopropane-1-carboxamide], 100 to 1000 nM. With `Cc1ccc(C(NC(=O)C2(c3ccc4c(c3)COC(C)(C)O4)CC2)c2ccc(C)o2)c(C)c1` (centres unmarked) [Cpd. 169, 1-(2,2-dimethyl-2,4-dihydro-1,3-benzodioxin-6-yl)-N-[(2,4-dimethylphenyl)(5-methylfuran-2-yl)methyl]cyclopropane-1-carboxamide], the IC50 was 100 to 1000 nM. On the same count and under the same terms, in the case of `Cc1ccc(C(NC(=O)C2(c3ccc4[nH]cc(C(C)(C)CO)c4c3)CC2)c2ccc(C)o2)c(C)c1` (centres unmarked) [Cpd. 170, N-[(2,4-dimethylphenyl)(5-methylfuran-2-yl)methyl]-1-[3-(1-hydroxy-2-methylpropan-2-yl)-1H-indol-5-yl]cyclopropane-1-carboxamide] it was 10 to 100 nM.

As to `Cc1ccc(C(NC(=O)C2(c3ccc4c(c3)OCS(=O)(=O)N4)CC2)c2ccc(C)o2)c(C(F)(F)F)c1` (centres unmarked) [Cpd. 171, 1-(2,2-dioxo-1,3-dihydro-4,2,1-benzoxathiazin-6-yl)-N-{[4-methyl-2-(trifluoromethyl)phenyl](5-methylfuran-2-yl)methyl}cyclopropane-1-carboxamide], the half-maximal inhibitory concentration (IC50) lay in the range of 10 to 100 nM.

Tested on in another series: not given
Assay: not given
Settings: not given
As to `Cc1ccc(C(NC(=O)Cc2ccc3c(c2)CC(=O)N3C)c2ccc(C)o2)c(N2CCCCC2)c1` (centres unmarked) (as salt: HCl) [Cpd. 38, N-{[4-methyl-2-(piperidin-1-yl)phenyl](5-methylfuran-2-yl)methyl}-2-(1-methyl-2-oxo-2,3-dihydro-1H-indol-5-yl)acetamide], the melting point (as a rule, the temperature, or range, at which the solid turns liquid) is 215 °C.

For `Cc1ccc(C(NC(=O)Cc2ccc3c(c2)C(C)(O)C(=O)N3C)c2ccc(C)o2)c(N2CCCCC2)c1` (centres unmarked) (as salt: HCl) [Cpd. 39, 2-(3-hydroxy-1,3-dimethyl-2-oxo-2,3-dihydro-1H-indol-5-yl)-N-{[4-methyl-2-(piperidin-1-yl)phenyl](5-methylfuran-2-yl)methyl}acetamide], the melting point was 103 °C. Same read-out and setting: in the case of `Cc1ccc(C(NC(=O)Cc2ccc3c(c2)C(C)(C)C(=O)N3C)c2ccc(C)o2)c(N2CCCCC2)c1` (centres unmarked) (as salt: HCl) [Cpd. 40, N-{[4-methyl-2-(piperidin-1-yl)phenyl](5-methylfuran-2-yl)methyl}-2-(1,3,3-trimethyl-2-oxo-2,3-dihydro-1H-indol-5-yl)acetamide] it was 75 °C.
